We go through 16 molecules from PubChem BioAssay (NCI).

Structures are written as SMILES.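 These data come from cells grown in 96-well plates and exposed to compound for 48 hours at five concentrations. TGI denotes the concentration required for complete inhibition of growth.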

Holding throughout (assay): DTP human tumour cell line panel, 48 h
The test system of assay [1] is MALME-3M melanoma.
Assay [2] concerns 786-0 renal.
For assay [3], the system named is A549 NSCLC.
Assay [4] relates to LOX IMVI melanoma.
The subject of assay [5] is KM20L2 colon.
Assay [6] relates to SNB-78 CNS.
Assay [7] concerns SW-620 colon.
For assay [8], the system named is MOLT-4 leukemia.

As for `CCC/C(=N\NC(=O)c1cc2ccccc2cc1O)C(CC)C(=O)CCC(=O)N(Cc1ccccc1)Cc1ccccc1` (stereo not drawn), the TGI in assay [1], in assay [2], in assay [3], in assay [4], in assay [5] and in assay [6] was over 100 µM throughout. Moreover, the TGI in assay [7] and in assay [8] was over 100 µM in each case.
With `Cc1cccc(NC(=O)CC#N)c1Cl`, the TGI in assay [1], in assay [2], in assay [3], in assay [4], in assay [5] and in assay [6] was over 100 µM throughout. Moreover, the TGI in assay [7] and in assay [8] was over 100 µM in each case.
Take `O=c1/c(=C/c2ccc3c(c2)OCO3)sc2nnc(-c3ccco3)n12`: the TGI in assay [1], in assay [2], in assay [3], in assay [4], in assay [5] and in assay [6] was over 100 µM throughout. The concentration for total growth inhibition (TGI) in assay [7] and in assay [8] was over 100 µM throughout.
For the molecule `COc1ccc(/C(C)=N/NC(N)=S)c(OC)c1`, the TGI in assay [1], in assay [2], in assay [3], in assay [4], in assay [5] and in assay [6] was over 100 µM each time. In addition, the TGI in assay [7] and in assay [8] was over 100 µM in each case.
`CC(Oc1ccc2cc(C(=O)c3ccccc3)c(=O)oc2c1)C(=O)O` (stereo not drawn): the TGI in assay [1], in assay [2], in assay [3], in assay [4], in assay [5] and in assay [6] was over 100 µM each time. Besides, the concentration for total growth inhibition (TGI) in assay [7] and in assay [8] was over 100 µM each time.
Regarding `COc1ccc(C(=O)O)c(Cc2ccc3ccccc3c2)c1`, the TGI in assay [1], in assay [2], in assay [3], in assay [4], in assay [5] and in assay [6] was over 100 µM in each case. For the same molecule, the TGI in assay [7] and in assay [8] was over 100 µM throughout.
As to `CC1=C(C(=O)Nc2ccccc2C)C(c2ccc(C3C(C(=O)Nc4ccccc4C)=CNC=C3C(=O)Nc3ccccc3C)cc2)C(C(=O)Nc2ccccc2C)=C(C)N1`, the TGI (commonly the concentration at which net growth stops) in assay [1] is 38.9 µM; in assay [2], 29.3 µM; in assay [3] it was over 100 µM; in assay [4] it was 21.7 µM; in assay [5], 28.6 µM; in assay [6], 96.4 µM. Further, the TGI in assay [7] was 32.6 µM; in assay [8] it was over 40.3 µM.
Consider `Oc1cc2c(cc1O)-c1[nH]ncc1CC2`, for which the TGI in assay [1], in assay [2], in assay [3], in assay [4], in assay [5] and in assay [6] was over 100 µM throughout. The values for the TGI in assay [7] and in assay [8] were over 100 µM and 88.8 µM, respectively.
Take `O=C(c1ccc2c3c(ccc(C(=O)C(F)(F)F)c13)CC2)C(F)(F)F`: the TGI in assay [1], in assay [2], in assay [3], in assay [4], in assay [5] and in assay [6] was over 100 µM in each case. Moreover, the TGI in assay [7] and in assay [8] was over 100 µM in each case.
Consider `Cc1cc2c(cc1C)[n+](=O)c(C(=O)/C=C/c1ccccc1Cl)c(C)n2[O-]`, for which the TGI in assay [1] was 94.5 µM; in assay [2], 30.3 µM; in assay [3] it was over 100 µM; in assay [4] it was over 100 µM; in assay [5], over 100 µM; in assay [6], over 100 µM. Further, the TGI in assay [7] and in assay [8] was over 100 µM in each case.
In the case of `CN(C)CCC1(C2=CCCC2)CC/C(=C\c2ccccc2)C1=O` (stereo not drawn), the TGI stood at 31.7 µM in assay [1]; 27.8 µM in assay [2]; 41.9 µM in assay [3]; 31.3 µM in assay [4]; 26 µM in assay [5]; 46.2 µM in assay [6]. Besides, the TGI was 32.2 µM in assay [7] and 39 µM in assay [8].
With `CC(C)CC(=O)NS(=O)(=O)c1ccccc1`, the TGI in assay [1], in assay [2], in assay [3], in assay [4], in assay [5] and in assay [6] was over 100 µM in each case. Moreover, the TGI in assay [7] and in assay [8] was over 100 µM each time.
`CC1(C)OC(=O)C(=C2CC(c3ccccc3)c3ccccc32)C(=O)O1` (stereo not drawn): the TGI in assay [1], in assay [2], in assay [3], in assay [4], in assay [5] and in assay [6] was over 100 µM in each case. For the same molecule, the TGI in assay [7] and in assay [8] was over 100 µM in each case.
For `Cc1cc2c(c(N)c1C)C(=O)c1ccccc1C2=O`, the TGI in assay [1] is over 100 µM; in assay [2] it was 62.7 µM; in assay [3], over 100 µM; in assay [4] it was over 100 µM; in assay [5], over 100 µM; in assay [6], over 100 µM. Besides, the TGI in assay [7] and in assay [8] was over 100 µM each time.
For `CC1CCC23COC(=O)C2C(O)CCC3C1(C)CC(O)c1ccoc1` (stereo not drawn), the TGI in assay [1], in assay [2], in assay [3], in assay [4], in assay [5] and in assay [6] was over 100 µM each time. Besides, the TGI in assay [7] and in assay [8] was over 100 µM in each case.
Take `O=C1C(N2C(=O)c3ccccc3C2=O)CN1C(COCc1ccccc1)c1ccc(OCc2ccccc2)cc1` (stereo not drawn): the TGI in assay [1], in assay [2], in assay [3], in assay [4], in assay [5] and in assay [6] was over 100 µM throughout. Moreover, the TGI in assay [7] and in assay [8] was over 100 µM in each case.
